Patent publication US11141452B2, “Bifunctional compounds for relief of pain comprising an opioid receptor agonist moiety and a NK1 receptor antagonist moiety and methods for treating pain” (THE ARIZONA BOARD OF REGENTS ON BEHALF OF THE UNIVERSITY OF …, priority 2014, dated 2021)
Where “and” joins values, the source holds several entries; their conditions need not be identical. Identical values can stand only once. Like-named read-outs stand apart in the source and are kept apart here. Non-standard residues stand in square brackets, D forms with d. Residues, ends and D or L forms follow the SMILES beside them. *: point of attachment. NH(3,5-(CF3)2-benzyl) = FC(F)(F)c1cc(CN*)cc(C(F)(F)F)c1; NMePhe(4-F) = CN[C@@H](Cc1ccc(F)cc1)C(=O)O; Phe(4-F) = N[C@@H](Cc1ccc(F)cc1)C(=O)O; Dmt = Cc1cc(O)cc(C)c1C[C@H](N)C(=O)O; NMeF = CN[C@@H](Cc1ccccc1)C(=O)O

Experiments:
NK1R = target: T1, NK1R (Cavia porcellus, UniProt P30547); test: GPI/LMMP functional assay at NK1R (agonist and antagonist testing); type: cell-based, guinea pig; details: for GPI/LMMP (NK1R) Agonist: agonist activity at the concentration in the cell
T1 construct: The longitudinal muscle with myenteric plexus (LMMP) was carefully separated from the circular muscle; from tissue; host or cells: guinea pig ileum longitudinal muscle with myenteric plexus
T1 sequence (P30547 whole entry): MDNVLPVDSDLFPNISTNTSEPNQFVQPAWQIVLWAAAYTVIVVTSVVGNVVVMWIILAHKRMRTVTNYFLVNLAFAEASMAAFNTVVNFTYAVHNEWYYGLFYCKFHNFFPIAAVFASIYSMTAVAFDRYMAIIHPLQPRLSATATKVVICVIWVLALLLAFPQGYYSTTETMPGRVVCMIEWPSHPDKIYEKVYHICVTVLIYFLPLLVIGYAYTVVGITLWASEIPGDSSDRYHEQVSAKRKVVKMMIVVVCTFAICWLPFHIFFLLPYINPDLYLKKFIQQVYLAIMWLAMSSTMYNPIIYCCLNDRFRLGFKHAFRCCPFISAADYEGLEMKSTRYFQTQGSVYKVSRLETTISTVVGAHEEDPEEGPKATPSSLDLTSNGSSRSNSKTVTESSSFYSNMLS

hNK1 = target: T2, hNK1 (Homo sapiens, UniProt P25103); test: hNK1/CHO cell membrane radioligand binding assay ([3H]SP); details: for Ki: Ki^hNK1 (nM), hNK1/CHO membranes, [3H]SP; for Ki^hNK1/Ki^rNK1: ratio human/rat NK1
T2 construct: expressed in transfected cells; host or cells: CHO
T2 sequence (P25103 whole entry): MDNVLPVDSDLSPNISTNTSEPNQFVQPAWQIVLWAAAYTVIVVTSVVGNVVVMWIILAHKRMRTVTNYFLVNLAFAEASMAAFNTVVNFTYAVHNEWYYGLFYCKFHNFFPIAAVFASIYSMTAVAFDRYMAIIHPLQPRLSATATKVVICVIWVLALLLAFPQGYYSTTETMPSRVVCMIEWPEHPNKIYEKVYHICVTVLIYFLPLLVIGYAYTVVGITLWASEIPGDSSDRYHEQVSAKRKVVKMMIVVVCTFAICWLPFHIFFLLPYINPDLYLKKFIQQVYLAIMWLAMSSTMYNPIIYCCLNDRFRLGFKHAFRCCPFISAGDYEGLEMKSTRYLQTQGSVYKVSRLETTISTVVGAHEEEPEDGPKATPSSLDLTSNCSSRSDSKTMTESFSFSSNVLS

rNK1 = rNK1 (Rattus norvegicus, UniProt P14600); test: Radioligand binding assay at rat NK1 receptor; details: Ki^rNK1 (nM)
Sequence of rNK1 (P14600 whole entry): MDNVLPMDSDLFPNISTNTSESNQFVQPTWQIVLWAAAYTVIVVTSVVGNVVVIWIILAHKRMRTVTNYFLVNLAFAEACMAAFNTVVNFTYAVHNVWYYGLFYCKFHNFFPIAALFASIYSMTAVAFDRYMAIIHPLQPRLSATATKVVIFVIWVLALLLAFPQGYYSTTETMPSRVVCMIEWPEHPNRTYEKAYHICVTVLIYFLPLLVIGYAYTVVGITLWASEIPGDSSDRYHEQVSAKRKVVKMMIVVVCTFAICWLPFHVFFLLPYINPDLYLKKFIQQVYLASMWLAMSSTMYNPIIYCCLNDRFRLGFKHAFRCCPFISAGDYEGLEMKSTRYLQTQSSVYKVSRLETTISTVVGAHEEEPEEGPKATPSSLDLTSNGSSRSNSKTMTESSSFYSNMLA
Method: (§1) Binding affinities of these ligands were measured on radioligand binding assays. […] ([43]).

MOR [1] = test: Radioligand binding assay at μ opioid receptor; details: for Log[IC50±] (μ): log IC50 ± error; for Ki^μ/Ki^δ: ratio of binding affinities MOR/DOR
Method: as §1

DOR [2] = target: T3, DOR (Mus musculus, UniProt P32300); test: Mouse isolated vas deferens (MVD) functional assay; type: cell-based
T3 construct: Male ICR mice under CO2 anesthesia were sacrificed by cervical dislocation and the vasa differentia removed; from tissue; host or cells: mouse vas deferens (ICR mice)
T3 sequence (P32300 whole entry): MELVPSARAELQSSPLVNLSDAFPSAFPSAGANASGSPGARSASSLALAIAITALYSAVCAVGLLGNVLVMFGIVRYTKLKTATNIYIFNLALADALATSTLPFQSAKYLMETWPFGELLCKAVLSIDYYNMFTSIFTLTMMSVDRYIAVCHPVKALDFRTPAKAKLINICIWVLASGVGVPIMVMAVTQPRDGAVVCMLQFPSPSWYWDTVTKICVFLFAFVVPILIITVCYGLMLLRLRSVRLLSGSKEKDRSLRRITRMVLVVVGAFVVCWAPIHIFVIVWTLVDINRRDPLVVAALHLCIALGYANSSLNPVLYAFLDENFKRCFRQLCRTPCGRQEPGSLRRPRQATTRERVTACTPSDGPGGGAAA

DOR [3] = target: DOR (Homo sapiens, UniProt P41143); test: Radioligand binding assay at δ opioid receptor; details: for Ki: Ki^δ (nM)
Sequence of DOR (Homo sapiens, UniProt P41143) (P41143 whole entry): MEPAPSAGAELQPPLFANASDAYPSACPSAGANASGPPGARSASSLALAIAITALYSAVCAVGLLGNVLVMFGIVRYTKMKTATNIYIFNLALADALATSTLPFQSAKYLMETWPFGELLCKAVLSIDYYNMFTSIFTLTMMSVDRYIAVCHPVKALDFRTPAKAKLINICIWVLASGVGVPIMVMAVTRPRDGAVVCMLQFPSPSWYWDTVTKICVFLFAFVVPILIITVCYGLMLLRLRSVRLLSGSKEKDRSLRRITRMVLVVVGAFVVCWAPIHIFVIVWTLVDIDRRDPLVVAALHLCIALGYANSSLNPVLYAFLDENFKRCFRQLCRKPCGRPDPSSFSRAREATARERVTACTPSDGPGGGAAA
Method: as §1

MOR [4] = test: Guinea pig isolated ileum (GPI) functional assay; type: cell-based
in vitro = details: rat, plasma
[5] = agonist activity, electrically stimulated tissue, read-out: GPI (MOR) IC50
[6] = GPI/LMMP (NK1R) Ke (nM) ± S.E.M., antagonist activity
[7] = MVD (DOR) IC50 (nM), agonist activity, electrically stimulated tissue
[8] = head of Table IX, read-out: GPI (MOR) ID50

Row | SMILES | Kb (NK1R) | GPI/LMMP (NK1R) Agonist (NK1R) | Ki (hNK1) | Ki^hNK1/Ki^rNK1 (hNK1) | Ki (rNK1) | Ki (MOR [1]) | binding selectivity for MOR over DOR (MOR [1]) | Log[IC50±] (μ) (MOR [1]) | IC50 (DOR [2]) | higher agonist activity at DOR compared to MOR (functional assays) (DOR [2]) | IC50 (DOR [3]) | GPI/MVD IC50 ratio (MOR [4]) | IC50 (MOR [4]; [5]) | Kb (NK1R; [6]) | Ki^μ/Ki^δ (MOR [1]) | IC50 (DOR [2]; [7]) | Ki (DOR [3]) | IC50 (MOR [4]; [8]) | half-life (in vitro)
1 | CC(C)C[C@H](NC(=O)[C@@H]1CCCN1C(=O)c1ccc(CNC(=O)[C@H](Cc2ccccc2)N(C)C(=O)CNC(=O)[C@@H](C)NC(=O)[C@@H](N)Cc2ccc(O)cc2)cc1)C(=O)N[C@@H](Cc1c[nH]c2ccccc12)C(=O)NCc1cc(C(F)(F)F)cc(C(F)(F)F)c1 [AKG125, H-Tyr-D-Ala-Gly-NMePhe-4-Amb-Pro-Leu-Trp-NH-Bn(3′,5′-(CF3)2)] | 8.36 ± 4.12 nM | None at 100 nM | 2.3 nM | 1/13 | 30 nM | 5 nM | 23 times | −7.92 ± 0.11 | 46.3 ± 13.4 nM | 10 times | 263 nM | 10/1 | 470 nM and 471 nM |  |  |  |  |  | 
2 | CC(C)C[C@H](NC(=O)[C@@H]1CCCN1C(=O)CNC(=O)[C@H](Cc1ccc(F)cc1)NC(=O)CNC(=O)[C@@H](C)NC(=O)[C@@H](N)Cc1ccc(O)cc1)C(=O)N[C@@H](Cc1c[nH]c2ccccc12)C(=O)NCc1cc(C(F)(F)F)cc(C(F)(F)F)c1 [AKG130, H-Tyr-D-Ala-Gly-Phe(4-F)-Gly-Pro-Leu-Trp-NH-Bn(3′,5′-(CF3)2)] (H-Y[dA]G[Phe(4-F)]GPLW-{NH(3,5-(CF3)2-benzyl)}) |  | None at 300 nM | 1.54 nM | 1/47 | 72 nM | 9 nM |  | −7.69 ± 0.06 |  |  | 11 nM |  | 340 nM and 339 nM | 11 nM and 10.6 nM | 2/1 | 11.9 ± 1.56 nM | 5 nM |  | 
3 | CC(C)C[C@H](NC(=O)[C@@H]1CCCN1C(=O)CNC(=O)[C@H](Cc1ccc(F)cc1)N(C)C(=O)CNC(=O)[C@@H](C)NC(=O)[C@@H](N)Cc1ccc(O)cc1)C(=O)N[C@@H](Cc1c[nH]c2ccccc12)C(=O)NCc1cc(C(F)(F)F)cc(C(F)(F)F)c1 [AKG131, H-Tyr-D-Ala-Gly-NMePhe(4-F)-Gly-Pro-Leu-Trp-NH-Bn(3′,5′-(CF3)2)] (H-Y[dA]G[NMePhe(4-F)]GPLW-{NH(3,5-(CF3)2-benzyl)}) |  | None at 100 nM | 2 nM | 1/8 | 89 nM |  |  | −6.40 ± 0.32 |  |  | 38 nM | 2/1 | 63 nM and 62.5 nM | 35.8 ± 10.8 nM | 11/1 | 30 nM and 29.7 nM | 17 nM |  | 
4 | Cc1cc(O)cc(C)c1C[C@H](N)C(=O)N[C@H](C)C(=O)NCC(=O)N(C)[C@@H](Cc1ccccc1)C(=O)N[C@@H](CO)C(=O)N1CCC[C@H]1C(=O)N[C@@H](CC(C)C)C(=O)N[C@@H](Cc1c[nH]c2ccccc12)C(=O)NCc1cc(C(F)(F)F)cc(C(F)(F)F)c1 [AKG132] (H-[Dmt][dA]G[NMeF]SPLW-{NH(3,5-(CF3)2-benzyl)}) |  | None at 30 nM | 5.6 nM and 5.61 nM | 1/6 | 36 nM | 0.4 nM |  | −9.03 ± 0.06 |  |  | 5.25 nM |  | 43 nM | 19.8 ± 2.9 nM | 1/5 | 7.66 ± 2.03 nM | 2 nM | 42.6 ± 6 nM | 
5 | CC(C)C[C@H](NC(=O)[C@@H]1CCCN1C(=O)[C@H](CO)NC(=O)[C@H](Cc1ccc(F)cc1)N(C)C(=O)CNC(=O)[C@@H](C)NC(=O)[C@@H](N)Cc1ccc(O)cc1)C(=O)N[C@@H](Cc1c[nH]c2ccccc12)C(=O)NCc1cc(C(F)(F)F)cc(C(F)(F)F)c1 [AKG134] (H-Y[dA]G[NMePhe(4-F)]SPLW-{NH(3,5-(CF3)2-benzyl)}) |  | None at 30 nM | 7.95 ± 0.87 nM | 1/6 | 50.2 ± 16.9 nM | 2 nM |  | −8.27 ± 0.11 |  |  | 14.5 nM | 21/1 |  | 1.86 ± 0.43 nM | 1/4 | 8.94 ± 0.795 nM | 7 nM | 184 ± 30.9 nM | 
6 | Cc1cc(O)cc(C)c1C[C@H](N)C(=O)N[C@H](C)C(=O)NCC(=O)N(C)[C@@H](Cc1ccc(F)cc1)C(=O)N[C@@H](CO)C(=O)N1CCC[C@H]1C(=O)N[C@@H](CC(C)C)C(=O)N[C@@H](Cc1c[nH]c2ccccc12)C(=O)NCc1cc(C(F)(F)F)cc(C(F)(F)F)c1 [AKG135] (H-[Dmt][dA]G[NMePhe(4-F)]SPLW-{NH(3,5-(CF3)2-benzyl)}; N-terminus assumed) |  | None at 100 nM | 7.26 ± 0.59 nM | 1/7 | 51.7 ± 16.2 nM | 0.5 nM |  | −8.93 ± 0.09 |  |  | 1 nM | 2/1 | 23 nM | 28.7 ± 11.1 nM | 1/1 | 15.4 ± 5.4 nM | 0.5 nM | 23.4 ± 4.74 nM | 
7 | CC(C)C[C@H](NC(=O)[C@@H]1CCCN1C(=O)c1ccc(NC(=O)[C@H](Cc2ccccc2)N(C)C(=O)CNC(=O)[C@@H](C)NC(=O)[C@@H](N)Cc2ccc(O)cc2)cc1)C(=O)N[C@@H](Cc1c[nH]c2ccccc12)C(=O)NCc1cc(C(F)(F)F)cc(C(F)(F)F)c1 [AKG176, H-Tyr-D-Ala-Gly-NMePhe-4-Abz-Pro-Leu-Trp-NH-Bn(3′,5′-(CF3)2)] | 117 ± 31.4 nM | None at 300 nM | 5.3 nM | 1/19 | 74 nM | 1 nM |  | −8.69 ± 0.24 | 22.8 ± 5.53 nM |  | 182 nM | 2/1 | 40.8 ± 8 nM |  | 1/82 |  | 70 nM |  | 
8 | CC(C)C[C@H](NC(=O)[C@@H]1CCCN1C(=O)CNC(=O)[C@H](CO)NC(=O)[C@H](Cc1ccccc1)N(C)C(=O)CNC(=O)[C@@H](C)NC(=O)[C@@H](N)Cc1ccc(O)cc1)C(=O)N[C@@H](Cc1c[nH]c2ccccc12)C(=O)NCc1cc(C(F)(F)F)cc(C(F)(F)F)c1 [AKG-CRA-136] (H-Y[dA]G[NMeF]SGPLW-{NH(3,5-(CF3)2-benzyl)}) |  | None at 100 nM | 9.23 ± 1.38 nM | 1/17 | 156 ± 2.33 nM | 3 nM |  | −8.07 ± 0.18 |  |  | 85.1 nM | 5/1 |  | 27.6 ± 2.9 nM | 1/9 | 22.6 ± 2.07 nM | 38 nM | 108 ± 44.8 nM | 
9 | Cc1cc(O)cc(C)c1C[C@H](N)C(=O)N[C@H](C)C(=O)NCC(=O)N(C)[C@@H](Cc1ccccc1)C(=O)N[C@@H](CO)C(=O)NCC(=O)N1CCC[C@H]1C(=O)N[C@@H](CC(C)C)C(=O)N[C@@H](Cc1c[nH]c2ccccc12)C(=O)NCc1cc(C(F)(F)F)cc(C(F)(F)F)c1 [AKG-CRA-137] (H-[Dmt][dA]G[NMeF]SGPLW-{NH(3,5-(CF3)2-benzyl)}) |  | None at 100 nM | 4.9 nM and 4.76 nM | 1/18 | 87.5 nM | 0.7 nM |  | −8.82 ± 0.26 |  |  | 2.69 nM | 1/2 | 7.9 nM | 26.3 ± 5.7 nM |  | 16.4 ± 5.17 nM | 1 nM | 7.87 ± 2.57 nM | 
10 | CSCC[C@H](NC(=O)[C@H](Cc1ccccc1)NC(=O)CNC(=O)[C@@H](C)NC(=O)[C@@H](N)Cc1c(C)cc(O)cc1C)C(=O)N1CCC[C@H]1C(=O)N[C@@H](CC(C)C)C(=O)N[C@@H](Cc1c[nH]c2ccccc12)C(=O)NCc1cc(C(F)(F)F)cc(C(F)(F)F)c1 [TY032, H-Dmt-D-Ala-Gly-Phe-Met-Pro-Leu-Trp-NH-Bn(3′,5′-(CF3)2), reference compound] |  |  |  |  |  |  |  |  |  |  |  |  |  |  |  |  |  |  | > 6 h
